{
  "source": "patent US11040117B2",
  "about": "“Treatment of a subtype of ASD” (Stalicla S.A., priority 2017, dated 2021)",
  "data": [
    {"system": "ASD phenotype 1 lymphoblastoid cell lines", "test": "Biolog Phenotype Mammalian MicroArrays (PM-M): NADH production, colorimetric redox dye", "type": "cell-based, human", "conditions": "cells exposed to the substance; AUC and endpoint absorbance", "protocol": "From all subjects, blood samples were collected and lymphoblastoid cell lines generated. Briefly, tubes containing anticoagulant citrate dextrose (ACD) were used to collect blood samples via venipuncture, in order to ensure that the blood cells remained metabolically active. The tubes were kept at room temperature and processed within 24 hours.\nCell lines were obtained by immortalization of lymphocytes from blood samples using Epstein-Barr virus.\nEnergy production of cells was measured using commercially available Phenotype Mammalian MicroArrays (PM-Ms, Biolog, Hayward, Calif., USA).\nThe compound in each well was designed to be used by the cells, either as the sole energy source or as the metabolic effector influencing the utilization of an energy source (α-D-glucose) added in the cell suspension. […] Before plating, cell viability and number were assessed utilizing a BioRad cell counter and a trypan blue dye. The concentration of live cells required for plating was 4×10^5 cells/mL, corresponding to 20,000 cells per well in a volume of 50 μL. […] Cells were incubated for 48 h at 37° C. in 5% CO2, using the modified Biolog IF-M1 medium.\nThe Biolog IF-M1 medium was modified for plates PM-M1 to M4 by adding the following to 100 mL of Biolog IF-M1: 1.1 mL of 100× penicillin/streptomycin solution, 0.16 mL of 200 mM glutamine (final concentration 0.3 mM), and 5.3 mL of Fetal Bovine Serum (FBS, final concentration 5%). For plates PM-M5 to M8, 5.5 mM α-D-glucose will be added in place of FBS.\nDuring the 48-hour incubation, the only energy source the cells had was the chemical in the well. After this first incubation, Biolog Redox Dye Mix MB was added (10 μL/well) and the plates were incubated under the same conditions for an additional 24 hours. As the cells metabolized the energy source, tetrazolium dye in the media was reduced, producing a purple color according to the amount of NADH generated.\nFor the last 24 hours of the experiment, the plates were incubated in the Omnilog system, which collects optical density readings every 15 minutes, generating 96 data-points for each well. The system also elaborated the kinetic curve for the metabolic reaction in each well and extrapolated parameters such as slope, highest point, endpoint, area under the curve (AUC), and lag.\nAt the end of the 24-hour incubation, the plates were analyzed utilizing a microplate reader with readings at 590 and 750 nm. The first value (A590) indicated the highest absorbance peak of the redox dye and the second value (A750) gave a measure of the background noise. The relative absorbance (A590-750) was calculated per well.", "values": [
      {"substance": "IL-1beta: Th1 cytokine", "production of NADH in ASD phenotype 1 cells compared to TDs and non-phenotype 1 cells": "significantly lower levels of NADH"},
      {"substance": "IL-6: Th1 cytokine", "production of NADH in ASD phenotype 1 cells compared to TDs and non-phenotype 1 cells": "significantly lower levels of NADH"},
      {"substance": "FGF-1(aFGF): growth factor that selectively targets the PI3K-Akt-mTOR by binding the receptor tyrosine kinase", "production of NADH in ASD phenotype 1 cells compared to TDs and non-phenotype 1 cells": "significantly reduced production of NADH"},
      {"substance": "hGH(Somatotropin): growth factor that selectively targets the PI3K-Akt-mTOR by binding the receptor tyrosine kinase", "production of NADH in ASD phenotype 1 cells compared to TDs and non-phenotype 1 cells": "significantly reduced production of NADH"},
      {"substance": "IGF-I: insulin-like growth factor 1; targets less specifically the PI3K-AKT-mTOR pathway in LCLs", "production of NADH in ASD phenotype 1 cells compared to TDs and non-phenotype 1 cells": "no significant differences"},
      {"substance": "PDGF-AB: platelet-derived growth factor AB", "production of NADH in ASD phenotype 1 cells compared to TDs and non-phenotype 1 cells": "no significant differences"}
    ]}
  ]
}
